Results from patent publication US10364255B2, “Heteroaromatic compounds as Vanin inhibitors” (Boehringer Ingelheim International GmbH, priority 2017, dated 2019).
Read-outs that look alike come from different tables or passages of the source.

Legend:
[1] = target: FLAG-tagged Vanin-1 (AA 22-493, T26I) (Homo sapiens (Human), UniProt O95497, T26I); assay: Vanin-1 enzymatic assay (pantothenic acid formation, RapidFire Mass Spectrometry); format: biochemical; conditions: read-out: VNN 1 IC50
Procedure: The test compounds are dissolved in 100% DMSO at a concentration of 10 mM and in a first step diluted in DMSO to a concentration of 5 mM, followed by serial dilution steps in 100% DMSO. Dilution factor and number of dilution steps may vary according to needs. Typically 8 different concentrations by 1:5 dilutions are prepared, a further intermediate dilutions of the substances is carried out with assay buffer resulting in 1% final DMSO concentration in the assay.
Method 1): 0.15 nM of FLAG-tagged Vanin-1 (AA 22-493, T26I, produced internally) and test compounds are incubated at room temperature for 15 minutes in assay buffer (1 mM DTT, 0.0025% Brij-35, 50 mM HEPES, pH7.5). 3 μM D-Pantethine (Sigma, Cat#P2125-5G) in assay buffer is added and incubated for additional 30 minutes at room temperature. Reaction is stopped by adding equal volume of stop solution as the reaction mixture to reach 5 nM Nevirapine (as an internal standard) and 0.5% TFA. Assay plates are centrifuged for 2 minutes and the formation of pantothenic acid is detected by RapidFire Mass Spectrometry (mobile phase A: 0.1% formic acid in water, mobile phase B: 100% methanol) using graphitic carbon cartridge (Agilent Cat #G9206A).
Method 2): 0.1 nM of FLAG-tagged Vanin-1 (AA 22-493, T26I, produced internally) and test compounds are incubated at room temperature for 20 minutes in assay buffer (1 mM DTT, 0.0025% Brij-35, 50 mM HEPES, pH7.5). D-Pantethine (Sigma, Cat#P2125-5G) in assay buffer is added (final concentration 3 μM) and incubated for additional 30 minutes at room temperature. Total assay volume typically is 40 μl but might be adjusted according to needs. Reaction is stopped by adding equal volume of stop solution as the reaction mixture to reach 100 nM HD-pantothenic acid (as an internal standard) and 1% TFA. Assay plates are centrifuged for 2 minutes and the formation of pantothenic acid is detected by RapidFire Mass Spectrometry (mobile phase A: 0.1% formic acid and 0.01% trifluoroacetic acid in water; mobile phase B: 47.5% acetonitrile, 47.5% methanol, 0.1% formic acid and 0.01% trifluoroacetic acid in water) using a C18, 12 μL cartridge (Agilent Cat #G9205A).
The values given in Table I result from measurements of one or more samples. In case of multiple measurements the geometric mean values determined by method 1 and/or method 2 are given.

[2] = tested on: human whole blood; assay: Human Whole Blood assay (HWB; pantothenic acid formation from D-Pantethine); format: cell-based; conditions: 10 μM D-Pantethine, 30 minutes at room temperature, geometric mean if multiple measurements
Procedure: 250 μl human whole blood and 7 μl pre-diluted compound in RPMI 1640 media are incubated at room temperature for 15 minutes on an orbital shaker. 10 μl of D-Pantethine (Sigma, Cat#P2125-5G) is added, resulting in 10 μM final concentration, for additional 30 minutes incubation at room temperature. The reaction is stopped by placed on ice for 5 minutes. Assay plates are centrifuged at 1800 rpm at 4° C. for 10 minutes. 80 μl of plasma is mixed with 80 μl of ice-cold acetonitrile and is left on ice for 5 minutes. The reaction mixture is centrifuged at 4000 rpm for 10 min at 4° C. 50 μl of the supernatant is mixed with 150 μl of ice-cold H2O. The above solution is mixed with equal volume of stop solution to reach 5 nM Nevirapine (as an internal standard) and 0.4% TFA. The mixture is centrifuged at 4000 rpm for 10 minutes. The formation of pantothenic acid is detected by RapidFire Mass Spectrometry (mobile phase A: 0.1% Formic acid in water, mobile phase B: 100% Methanol) using graphitic carbon cartridge (Agilent Cat #G9206A). Please see Table I for results. The values given in Table I result from measurements of one or more samples. In case of multiple measurements the geometric mean values are given.

[3] = VNN1-assay method 1: 0.15 nM Vanin-1, 15 min preincubation, 3 μM D-Pantethine, geometric mean if multiple measurements
[4] = VNN1-assay methods 1 + 2: geometric mean of values determined by method 1 and method 2
[5] = VNN1-assay method 2: 0.1 nM Vanin-1, 20 min preincubation, 3 μM D-Pantethine, geometric mean if multiple measurements

FLAG-tagged Vanin-1 (AA 22-493, T26I), sequence (O95497 22-493 T26I): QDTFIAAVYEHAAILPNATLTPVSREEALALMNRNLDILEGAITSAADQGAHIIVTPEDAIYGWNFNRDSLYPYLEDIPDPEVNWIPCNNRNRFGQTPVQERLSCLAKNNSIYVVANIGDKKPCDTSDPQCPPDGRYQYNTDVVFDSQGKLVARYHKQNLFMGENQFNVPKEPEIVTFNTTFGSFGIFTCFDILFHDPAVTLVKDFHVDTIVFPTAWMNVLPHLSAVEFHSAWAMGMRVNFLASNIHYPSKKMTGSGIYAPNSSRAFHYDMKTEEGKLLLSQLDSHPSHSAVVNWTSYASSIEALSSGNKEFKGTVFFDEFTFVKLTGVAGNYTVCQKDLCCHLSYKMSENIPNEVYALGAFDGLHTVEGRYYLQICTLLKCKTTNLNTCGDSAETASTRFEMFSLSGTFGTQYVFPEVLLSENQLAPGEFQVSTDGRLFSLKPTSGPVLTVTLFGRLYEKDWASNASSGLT

| Structure (SMILES) | IC50 [1, 3] [nM] | IC50 [1, 4] [nM] | IC50 ([2]; Homo sapiens, 0.5 h) [nM] | IC50 [1, 5] [nM] | IC50 [2] [nM] |
| --- | --- | --- | --- | --- | --- |
| O=C(c1cnc2c(c1)OC[C@H](c1ccccc1)N2)N1CCC(c2ccncc2)C1 (single isomer, unassigned) [Example 11] | 19 |  |  |  | 3700 |
| O=C(c1cnc2c(c1)OC[C@H](c1ccccc1)N2)N1CCC(c2ccncc2)C1 (single isomer, unassigned) [Example 12] | 1.8 |  |  |  | 330 |
| O=C(c1cnc2c(c1)OCC1(CC1)N2)N1CCC(c2ccncc2)C1 (single isomer, unassigned) [Example 20] | 1.9 |  |  |  | 130 |
| O=C(c1cnc2c(c1)OCC1(CC1)N2)N1CCC(c2ccncc2)C1 (single isomer, unassigned) [Example 22] | 0.4 |  |  |  | 37 |
| CC[C@@H]1COc2cc(C(=O)N3CC[C@H](N(C)C(C)=O)C3)cnc2N1 [Example 1] |  | 3.3 | 20 |  |  |
| CC(=O)N(C)[C@H]1CCN(C(=O)c2cnc3c(c2)OC[C@@H](C(C)C)N3)C1 [Example 2] | 3.6 |  | 26 |  |  |
| CC[C@H]1COc2cc(C(=O)N3CC[C@H](N(C)C(C)=O)C3)cnc2N1 [Example 4] | 1.3 |  | 22 |  |  |
| CC[C@H]1COc2cc(C(=O)N3CCC(c4ccncc4)C3)cnc2N1 (some centres unmarked) [Example 5] |  | 3.1 | 76 |  |  |
| CC[C@@H]1COc2cc(C(=O)N3CCC(c4ccncc4)C3)cnc2N1 (some centres unmarked) [Example 6] | 8.9 |  | 99 |  |  |
| O=C(c1cnc2c(c1)OC[C@@H](c1ccccc1)N2)N1CCC(c2ccncc2)C1 (some centres unmarked) [Example 7] | 6200 |  |  |  |  |
| CC(C)[C@@H]1COc2cc(C(=O)N3CCC(c4ccncc4)C3)cnc2N1 (some centres unmarked) [Example 8] | 17.2 |  |  |  |  |
| CC(=O)N(C)[C@H]1CCN(C(=O)c2cnc3c(c2)OC[C@H](C(C)C)N3)C1 [Example 9] | 1.5 |  | 23 |  |  |
| CC(C)[C@H]1COc2cc(C(=O)N3CCC(c4ccncc4)C3)cnc2N1 (some centres unmarked) [Example 10] | 2.4 |  | 146 |  |  |
| CC(=O)N(C)[C@H]1CCN(C(=O)c2cnc3c(c2)OC[C@H](C)N3)C1 [Example 13] |  | 1.8 | 23 |  |  |
| CN([C@H]1CCN(C(=O)c2cnc3c(c2)OCC2(CC2)N3)C1)S(=O)(=O)C1CC1 [Example 19] |  |  | 39 | 2.3 |  |
| CN1C(=O)CC[C@]12CCN(C(=O)c1cnc3c(c1)OCCC1(CC1)N3)C2 [Example 23] |  |  | 50 | 8.1 |  |
| C[C@@H]1COc2cc(C(=O)N3CCC(c4cccnc4)C3)cnc2N1 (some centres unmarked) [Example 28] | 3.8 |  | 168 |  |  |
| CC(=O)N(C)[C@H]1CCN(C(=O)c2cnc3c(c2)OC[C@@H](C)N3)C1 [Example 29] |  | 3.3 | 28 |  |  |
| CC(=O)N(C)[C@H]1CCN(C(=O)c2cnc3c(c2)OC[C@H](c2ccccc2)N3)C1 [Example 30] |  | 2.4 | 43 |  |  |
| CC(=O)N(C)[C@H]1CCN(C(=O)c2cnc3c(c2)OC[C@@H](c2ccccc2)N3)C1 [Example 31] |  | 1750 |  |  |  |
| C[C@@H]1CNc2ncc(C(=O)N3CCC(c4ccncc4)C3)cc2O1 (some centres unmarked) [Example 33] | 2.5 |  | 34 |  |  |
| C[C@H]1CNc2ncc(C(=O)N3CCC(c4ccncc4)C3)cc2O1 (some centres unmarked) [Example 34] |  | 3.5 | 44 |  |  |
| CC(=O)N(C)[C@H]1CCN(C(=O)c2cnc3c(c2)O[C@@H](C)CN3)C1 [Example 35] |  | 26.1 | 190 |  |  |
| O=C(c1cnc2c(c1)OCCN2)N1CCC(c2ccncc2)C1 (centres unmarked) [Example 38] |  |  | 210 |  |  |
| CC(=O)N(C)[C@H]1CCN(C(=O)c2cnc3c(c2)OCCN3)C1 [Example 39] |  |  | 120 |  |  |
| C[C@H]1COc2cc(C(=O)N3CCC(c4ccncc4)C3)cnc2N1 (some centres unmarked) [Example 40] |  | 1.7 | 87 |  |  |
| O=C(c1cnc2c(c1)O[C@H](CO)CN2)N1CCC(c2ccncc2)C1 (some centres unmarked) [Example 43] |  |  | 66 |  |  |
| CC(=O)N(C)[C@H]1CCN(C(=O)c2cnc3c(c2)OCCCN3)C1 [Example 44] |  |  | 23 |  |  |

Further molecules by falling IC50 ([2]; Homo sapiens, 0.5 h), results first:

| IC50 [1, 3] [nM] | IC50 [1, 4] [nM] | IC50 ([2]; Homo sapiens, 0.5 h) [nM] | IC50 [1, 5] [nM] | Structure (SMILES) | IC50 [2] [nM] |
| --- | --- | --- | --- | --- | --- |
|  |  | 18 |  | CC(=O)N(C)[C@H]1CCN(C(=O)c2cnc3c(c2)O[C@H](CO)CN3)C1 [Example 41] |  |
|  | 1.1 | 16 |  | CC(=O)N(C)[C@H]1CCN(C(=O)c2cnc3c(c2)OCC(C)(C)CN3)C1 [Example 42] |  |
|  |  | 14 |  | CC(=O)N(C)[C@H]1CCN(C(=O)c2cnc3c(c2)O[C@H](C)CN3)C1 [Example 32] |  |
|  |  | 12 |  | CC(=O)N(C)[C@H]1CCN(C(=O)c2cnc3c(c2)OCC(C)(C)N3)C1 [Example 14] |  |
|  |  | 12 | 0.9 | CN(C(=O)C1COC1)[C@H]1CCN(C(=O)c2cnc3c(c2)OCC2(CC2)N3)C1 [Example 18] |  |
|  |  | 11 | 1.09 | CN1C(=O)CCC12CCN(C(=O)c1cnc3c(c1)OCCC1(CC1)N3)C2 (centres unmarked) [Example 27] |  |
|  | 0.4 | 10 |  | CC(=O)N(C)[C@H]1CCN(C(=O)c2cnc3c(c2)OCC2(CC2)N3)C1 [Example 21] |  |
|  |  | 8.9 | 0.6 | O=C(c1cnc2c(c1)OCC1(CC1)N2)N1CC[C@H](N2CCOC2=O)C1 [Example 16] |  |
|  |  | 8.8 | 0.7 | CN(C(=O)C1CC1)[C@H]1CCN(C(=O)c2cnc3c(c2)OCC2(CC2)N3)C1 [Example 17] |  |
|  |  | 7.8 | 0.7 | O=C(c1cnc2c(c1)OCC1(CC1)N2)N1CC[C@H](N2CCCC2=O)C1 [Example 15] |  |
|  |  | 6.5 | 0.6 | CN1C(=O)CC[C@@]12CCN(C(=O)c1cnc3c(c1)OCCC1(CC1)N3)C2 [Example 24] |  |
|  | 0.2 | 6.3 |  | CC(=O)N(C)[C@H]1CCN(C(=O)c2cnc3c(c2)OCCC2(CC2)N3)C1 [Example 37] |  |
|  |  | 5.9 | 0.2 | O=C(c1cnc2c(c1)OCCC1(CC1)N2)N1CC[C@H](N2CCOC2=O)C1 [Example 26] |  |
|  |  | 3.1 | 0.1 | O=C(c1cnc2c(c1)OCCC1(CC1)N2)N1CC[C@H](N2CCCC2=O)C1 [Example 25] |  |
